The values below come from PubChem BioAssay AID2060506 (Molecular Pharmacology Branch, DTP, NCI, 2025).

For the test, the system named is 598228-144-R-J1-PDC complex spheroid viability. Briefly: Anticancer human tumor 598228-144-R-J1-PDC patient-derived serous endometrial adenocarcinoma cell line growth inhibition [GQUAD]. The following applies: for viability, T/C: stronger effect = lower value. The text has this: DNA G-quadruplex Stabilizer Agents in Combinations in Complex Spheroids
A high-throughput screen of multi-cell type tumor spheroids was designed to identify active combinations of DNA G-quadruplex stabilizer agents and targeted small molecules. Complex spheroids include a stromal component modeled by human endothelial cells (HUVEC) and fibroblasts modeled by human mesenchymal stem cells (MSCs). The concentration ranges selected for each drug and investigational agent were based upon clinically achievable concentrations if the clinical Cmax of the agent was known.
Compounds. The drugs and investigational agents: pidnarulex (CX-5461; NSC782164), APTO-253 (NSC789042), BRACO-19 (NSC847499), peposertib (NSC802822), ceralasertib (NSC780249), elimusertib (NSC800525), camonsertib (NSC841442), AZD-1390 (NSC803789), olaparib (NSC753686), talazoparib (NSC767125), ART-558 (NSC835418), sotorasib (NSC818433), MRTX-1133 (NSC836407), SN-38 (NSC673596), topotecan (NSC609699), etoposide (NSC141540), doxorubicin (NSC123127), gemcitabine (NSC613327), 5-fluorouracil (NSC19893), paclitaxel (NSC125973), vemurafenib (NSC761431), panobinostat (NSC761190), R-306465 (JNJ-16241199; NSC773264), adavosertib (NSC754352), TP-3654 (NSC805149), carboplatin (NSC241240), KSQ-4279 (NSC840948), and staurosporine (NSC755774) were obtained from the National Cancer Institute (NCI) Developmental Therapeutics Program Chemical Repository (34). The FDA-approved anticancer drug set is available from the NCI Developmental Therapeutics Program. […] The stock solutions were prepared in dimethyl sulfoxide (DMSO, Sigma-Aldrich, St. Louis, MO, cat. D2650) at 800-fold the tested concentration and stored at -70 degrees C prior to their use. All drugs and investigational agents were tested over a range starting from a high concentration at or near the clinical Cmax and decreasing in half-log increments. If the clinical Cmax for an agent had not been determined, the highest concentration tested was 10 microM.
2.3 Cell Culture. All cells were maintained in an incubator at 37 degrees C and 5% CO2 with 95% humidity. The PDC lines were cultured according to standard operating procedures established by the NCI PDMR. All PDCs were thawed and cultured in Matrigel-coated flasks prepared with a working solution of 1X Ham's F-12 nutrient mix, without supplementation (Invitrogen, cat. 11765054), 100 U/mL penicillin-streptomycin (Invitrogen, cat. 15140122), and 2.5% Matrigel (Corning Inc., cat. 354248) for the first three passages. The 857933-349-R-J2-PDC line was cultured in 6C/Colon 1B media, which includes advanced DMEM/F-12 (Thermo Fisher Scientific, cat. 12634028), 10 mM HEPES (Thermo Fisher Scientific, cat. 15630080), 1X GlutaMAX supplement (Thermo Fisher Scientific, cat. 35050061), 0.1 mg/mL primocin (InvivoGen, cat. ant-pm-2), 10% defined fetal bovine serum, heat inactivated (HyClone Laboratories Inc., cat. SH30070.03HI), 50% L-WRN conditioned media (ATCC, cat. CRL-3276), 1.25 mM N-Acetyl-L-cysteine (Sigma-Aldrich, cat. A9165), 10 mM nicotinamide (Sigma-Aldrich, cat. N0636), 1X B-27 supplement (Thermo Fisher Scientific, cat. 17504044), 1X N-2 supplement (Thermo Fisher Scientific, cat. 17502048), 10 microM Y-27632 dihydrochloride (Tocris Bioscience, cat. 1254), and 50 ng/mL human EGF recombinant protein (Thermo Fisher Scientific, cat. PHG0311). The 485176-168-R4-J1-PDC line was cultured in Panc media, which includes all 6C/Colon 1B media components plus 100 ng/mL human FGF-10 (Thermo Fisher Scientific, cat. 100-26), 500 nM SB-431542 (Selleckchem, cat. S1067), and gastrin (Tocris, cat. 3006).
[…]

[1] abbreviates: compound alone, run of 03/26/2024.

“And” between values parts separate entries of the source, which are not always exact repeats. Identical values can stand only once. A value given as a limit tells only on which side of the number the result lay.
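Further: spheroids exposed to the agents for one week before reading.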
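Wherever viability, T/C is given: percent of vehicle DMSO control viability so 100% = untreated growth.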

For the compound `CN(C)c1ccc(Nc2c3ccc(NC(=O)CCN4CCCC4)cc3nc3cc(NC(=O)CCN4CCCC4)ccc23)cc1`, the viability, T/C (compound 0.0316 µM) is 102% [middle of 12 runs]; the viability, T/C (compound 0.1 µM) was 106% [middle of 12 runs]; the viability, T/C (compound 1 µM) was 101% [middle of 12 runs]; the viability, T/C (compound 3.16 µM) was 99.7% [middle of 12 runs]; the viability, T/C (compound 10 µM) is 90% [middle of 12 runs]. For the same compound, under setting [1], the IC50 is more than 10 µM.
Regarding `COc1cc(C2c3cc4c(cc3C(OC3OC5COC(C)OC5C(O)C3O)C3COC(=O)C23)OCO4)cc(OC)c1O` (centres undefined), the viability, T/C was 89.4% and 97.4% and 93.6% (compound 0.0316 µM); 96.5% and 82.4% and 72.5% (compound 0.1 µM); 74.2% and 76.2% and 74.6% (compound 0.316 µM); 78.1% and 70.3% and 58.1% (compound 1 µM); 64.4% and 59.9% and 78.7% (compound 3.16 µM); 48% and 46% and 36% (compound 10 µM). Also, for the setting “curve of compound”, the IC50 was 9.17 µM and 7.57 µM and 6.25 µM.
For `COc1ccc([C@@H](O)c2cc(-c3ncnc4cc(N5CCOCC5)ccc34)c(F)cc2Cl)nn1`, the viability, T/C (compound 0.0316 µM) was 97.8% and 102% and 84.3%; the viability, T/C (compound 0.1 µM) was 90% and 101% and 85.3%; the viability, T/C (compound 0.316 µM) was 89.9% and 67.4% and 82.6%; the viability, T/C (compound 1 µM) was 74.7% and 62.1% and 82.8%; the viability, T/C (compound 3.16 µM) is 52.1% and 42.8% and 49.9%; the viability, T/C (compound 10 µM) was 32.1% and 30% and 30.5%. Also, the IC50 (curve of compound) is 3.6 µM and 1.8 µM and 3.15 µM.
For the compound `COc1cccc2c1C(=O)c1c(O)c3c(c(O)c1C2=O)CC(O)(C(=O)CO)CC3OC1CC(N)C(O)C(C)O1` (centres undefined), the viability, T/C is 93.1% and 76% and 90.5% (compound 0.0316 µM); 76.3% and 67.8% and 76.2% (compound 0.1 µM); 78.5% and 73.6% and 72.8% (compound 0.316 µM); 41.3% and 36.2% and 49.6% (compound 1 µM); 1.91% and 2.01% and 1.77% (compound 3.16 µM); 0.43% and 0.5% and 0.55% (compound 10 µM). The IC50 (curve of compound) is 0.755 µM and 0.646 µM and 0.915 µM.
With `Cc1[nH]c2ccc(F)cc2c1-c1nc2c3cccnc3c3ncccc3c2[nH]1`, the viability, T/C (compound 0.0316 µM) was 99.3% [middle of 12 runs]; the viability, T/C (compound 3.16 µM) is 46.7% [middle of 12 runs]; the viability, T/C (compound 10 µM) is 68.5% [middle of 12 runs]. Also, the IC50 (compound alone, run of 03/18/2024) is > 10 µM and 3.62 µM; the IC50 under setting [1] is more than 10 µM.
With `Cc1[nH]c2ccccc2c1CCNCc1ccc(/C=C/C(=O)NO)cc1`, the viability, T/C runs as follows: (compound 0.000999 µM) 109% and 102% and 101%; (compound 0.00316 µM) 97.9% and 99.4% and 93.7%; (compound 0.00999 µM) 108% and 97.5% and 99%; (compound 0.0316 µM) 83.5% and 70.5% and 71.7%; (compound 0.0999 µM) 27.5% and 29.3% and 38.2%; (compound 0.316 µM) 0.72% and 0.83% and 0.61%. Besides, the IC50 (curve of compound) is 0.0631 µM and 0.0565 µM and 0.0673 µM.
`Cc1cccc(N(C)C(=O)C2C(O)CCN2c2nc(C)cc(C(F)(F)F)c2C#N)c1` (centres undefined): the viability, T/C runs as follows: (compound 0.0316 µM) 108% and 89.4% and 98.2%; (compound 0.1 µM) 92.7% and 78% and 99.4%; (compound 0.316 µM) 97.2% and 122% and 88.8%; (compound 1 µM) 99.8% and 91.5% and 99.9%; (compound 3.16 µM) 97.1% and 94.7% and 111%; (compound 10 µM) 93.6% and 88.1% and 102%. Under “curve of compound”, the concentration for half-maximal inhibition (IC50) is more than 10 µM.
With `Cn1ncnc1[C@H]1c2n[nH]c(=O)c3cc(F)cc(c23)N[C@@H]1c1ccc(F)cc1`, the viability, T/C runs as follows: (compound 0.000999 µM) 102% and 87.8% and 113%; (compound 0.00316 µM) 108% and 103% and 91.4%; (compound 0.00999 µM) 73.5% and 93.9% and 92.7%; (compound 0.0316 µM) 101% and 75.7% and 85.6%; (compound 0.0999 µM) 90.7% and 71.7% and 88%; (compound 0.316 µM) 73.6% and 88.2% and 69.7%. Also, the IC50 (curve of compound) was more than 0.316 µM.
Turning to `Nc1ccn(C2OC(CO)C(O)C2(F)F)c(=O)n1` (centres undefined), the viability, T/C (compound 0.0316 µM) is 44.7% and 45.7% and 52.1%; the viability, T/C (compound 0.1 µM) was 46.9% and 45.7% and 47.2%; the viability, T/C (compound 0.316 µM) was 49.2% and 45.3% and 41.9%; the viability, T/C (compound 1 µM) is 52% and 47.8% and 53%; the viability, T/C (compound 3.16 µM) is 40.2% and 36.2% and 38.9%; the viability, T/C (compound 10 µM) is 47.3% and 43.5% and 45.3%. Moreover, under “curve of compound”, the IC50 is less than 0.0316 µM.
Turning to `O=C(c1cc(Cc2n[nH]c(=O)c3ccccc23)ccc1F)N1CCN(C(=O)C2CC2)CC1`, the viability, T/C is 99.5% and 83.8% and 109% (compound 0.0316 µM); 96.3% and 85.6% and 96.4% (compound 0.1 µM); 88.2% and 96.8% (2×) (compound 0.316 µM); 118% and 79.3% and 98.2% (compound 1 µM); 81% and 79.2% and 90.8% (compound 3.16 µM); 74.8% and 64.3% and 66.1% (compound 10 µM). Moreover, the IC50 (curve of compound) is more than 10 µM.
For `O=c1[nH]cc(F)c(=O)[nH]1`, the viability, T/C is 133% and 103% and 95.3% (compound 0.0316 µM); 97.8% and 107% and 117% (compound 0.1 µM); 85.5% and 104% and 88.7% (compound 0.316 µM); 105% and 96.9% and 91.4% (compound 1 µM); 97% and 95.8% and 105% (compound 3.16 µM); 86.7% and 77.5% and 79.2% (compound 10 µM). Also, the IC50 (curve of compound) was more than 10 µM.
